Assay results published in patent US20030153539A1, “Method to potentiate the therapeutic efficacy of taxane and derivatives thereof” (priority 2000, published 2003).

Columns and labels:
[1] = biological target: T1, CYP1A2 (Homo sapiens, UniProt P05177); test: In vitro inhibition of cDNA expressed human CYP1A2 (chlorzoxazone substrate, radio-HPLC); details: mean of n=3
T1 sequence (P05177 1-516): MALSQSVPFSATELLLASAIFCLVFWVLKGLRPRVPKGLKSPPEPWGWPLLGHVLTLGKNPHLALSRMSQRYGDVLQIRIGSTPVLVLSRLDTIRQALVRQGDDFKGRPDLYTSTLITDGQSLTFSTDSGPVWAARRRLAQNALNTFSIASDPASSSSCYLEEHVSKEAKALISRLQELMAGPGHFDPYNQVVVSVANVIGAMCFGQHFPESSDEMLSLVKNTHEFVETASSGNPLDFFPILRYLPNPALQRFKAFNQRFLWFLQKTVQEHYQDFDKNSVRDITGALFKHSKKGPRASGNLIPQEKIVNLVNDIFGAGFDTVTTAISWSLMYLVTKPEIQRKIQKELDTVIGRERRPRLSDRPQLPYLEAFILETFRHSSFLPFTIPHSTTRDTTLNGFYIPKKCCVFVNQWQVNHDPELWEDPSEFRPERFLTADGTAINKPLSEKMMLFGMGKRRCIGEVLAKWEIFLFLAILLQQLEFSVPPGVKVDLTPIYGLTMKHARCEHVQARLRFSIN
Description: (§1) All incubations were conducted in triplicate.
(§2) See table 2 for HPLC mobile phase conditions.

[2] = biological target: CYP2C9 (Homo sapiens, UniProt P11712); test: In vitro inhibition of cDNA expressed human CYP2C9 (diclofenac substrate, radio-HPLC); details: mean of n=3
Description: as §1, §2

[3] = biological target: CYP2C19 (Homo sapiens, UniProt P33261); test: In vitro inhibition of cDNA expressed human CYP2C19 ((S)-mephenytoin substrate, radio-HPLC); details: control 100%, mean of n=3
Description: as §1, §2

[4] = biological target: CYP2D6 (Homo sapiens, UniProt P10635); test: In vitro inhibition of cDNA expressed human CYP2D6 (delavirdine substrate, radio-HPLC); details: mean of n=3
Description: as §1, §2

[5] = biological target: CYP3A4 (Homo sapiens, UniProt P08684); test: In vitro inhibition of cDNA expressed human CYP3A4 (testosterone substrate, radio-HPLC); details: for percentage of activity remaining in the presence of the compound: mean of n=3
Description: as §1, §2

[6] = biological target: T2, CYP2C8 (Homo sapiens, UniProt P10632); test: Inhibition of CYP2C8 mediated 6α-hydroxylation of paclitaxel (human CYP2C8 cDNA expressed microsomes, HPLC-UV); assay type: biochemical; details: 20 μM paclitaxel
T2 construct: purchased Gentest (Woburn, Mass., USA)
T2 sequence (P10632 1-490): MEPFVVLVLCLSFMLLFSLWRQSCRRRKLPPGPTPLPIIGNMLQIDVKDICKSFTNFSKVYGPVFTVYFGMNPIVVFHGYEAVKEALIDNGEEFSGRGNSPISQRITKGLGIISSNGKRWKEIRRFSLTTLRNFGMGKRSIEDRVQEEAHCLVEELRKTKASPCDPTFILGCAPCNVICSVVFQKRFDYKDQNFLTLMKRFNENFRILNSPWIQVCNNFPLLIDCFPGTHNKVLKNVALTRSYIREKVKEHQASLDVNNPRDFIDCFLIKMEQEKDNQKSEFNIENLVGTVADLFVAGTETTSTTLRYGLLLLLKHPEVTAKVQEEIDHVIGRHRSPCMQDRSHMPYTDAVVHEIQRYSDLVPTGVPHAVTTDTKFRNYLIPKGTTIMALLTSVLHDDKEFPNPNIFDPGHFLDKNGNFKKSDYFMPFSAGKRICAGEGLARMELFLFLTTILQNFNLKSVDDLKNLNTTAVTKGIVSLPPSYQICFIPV
Description: A 100 μl reaction mixture containing 4 pmol CYP2C8, […] paclitaxel (5 mM paclitaxel stock in ethanol) and NADPH (2 mM) in 50 mM potassium phosphate buffer (pH 7.4) was incubated at 37° C. for 40 min in the absence (solvent only) and presence of either 100 μM estramustine or estromustine.
Estramustine and estromustine were dissolved in DMSO:CH3CN (1:1). The reaction was stopped by addition of 50 μl CH3CN followed by an additional 50 μl of mobile phase. […] All incubations were conducted in triplicate.
See table 2 for HPLC mobile phase conditions. Both paclitaxel and the metabolite 6a-hydroxypaclitaxel were detected by its absorbance at 230 nm.
To investigate if estramustine and estromustine were able to inhibit CYP2C8 mediated enzyme activities, human CYP2C8 cDNA expressed microsomes were incubated with paclitaxel in the presence of either estramustine or estromustine.

[7] = CYP1A2, compound at 100 μM, control 100%
[8] = CYP2C9, compound at 100 μM, control 100%
[9] = CYP2D6, compound at 100 μM, control 100%
[10] = CYP3A4, compound at 100 μM, control 100%

Sequence of CYP2D6 (P10635 whole entry): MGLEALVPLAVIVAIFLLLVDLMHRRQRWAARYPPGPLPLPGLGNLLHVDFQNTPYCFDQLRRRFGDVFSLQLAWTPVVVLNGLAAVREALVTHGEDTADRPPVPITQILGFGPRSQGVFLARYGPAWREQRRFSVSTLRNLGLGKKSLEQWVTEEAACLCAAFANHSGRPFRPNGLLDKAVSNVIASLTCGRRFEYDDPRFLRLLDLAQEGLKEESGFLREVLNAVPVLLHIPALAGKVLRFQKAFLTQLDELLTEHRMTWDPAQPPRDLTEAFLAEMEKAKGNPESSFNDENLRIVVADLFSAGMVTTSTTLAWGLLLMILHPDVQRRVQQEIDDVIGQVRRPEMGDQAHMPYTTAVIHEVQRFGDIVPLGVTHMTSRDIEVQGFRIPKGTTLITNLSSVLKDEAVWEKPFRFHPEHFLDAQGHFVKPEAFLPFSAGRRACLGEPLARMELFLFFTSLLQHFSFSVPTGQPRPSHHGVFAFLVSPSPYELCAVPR
Sequence of CYP2C9 (P11712 whole entry): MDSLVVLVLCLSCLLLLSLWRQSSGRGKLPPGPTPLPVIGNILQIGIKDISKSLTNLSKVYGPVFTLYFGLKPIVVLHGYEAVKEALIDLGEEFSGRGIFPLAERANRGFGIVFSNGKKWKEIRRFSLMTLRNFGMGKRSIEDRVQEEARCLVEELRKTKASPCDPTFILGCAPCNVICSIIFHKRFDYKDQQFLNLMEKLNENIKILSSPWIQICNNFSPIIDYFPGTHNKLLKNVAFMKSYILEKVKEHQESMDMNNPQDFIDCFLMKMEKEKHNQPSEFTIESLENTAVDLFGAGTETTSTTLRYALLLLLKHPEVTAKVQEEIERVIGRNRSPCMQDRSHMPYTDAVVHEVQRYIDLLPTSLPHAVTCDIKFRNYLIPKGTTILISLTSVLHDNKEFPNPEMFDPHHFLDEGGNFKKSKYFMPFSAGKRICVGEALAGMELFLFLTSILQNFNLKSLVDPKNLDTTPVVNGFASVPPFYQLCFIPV
Sequence of CYP3A4 (P08684 whole entry): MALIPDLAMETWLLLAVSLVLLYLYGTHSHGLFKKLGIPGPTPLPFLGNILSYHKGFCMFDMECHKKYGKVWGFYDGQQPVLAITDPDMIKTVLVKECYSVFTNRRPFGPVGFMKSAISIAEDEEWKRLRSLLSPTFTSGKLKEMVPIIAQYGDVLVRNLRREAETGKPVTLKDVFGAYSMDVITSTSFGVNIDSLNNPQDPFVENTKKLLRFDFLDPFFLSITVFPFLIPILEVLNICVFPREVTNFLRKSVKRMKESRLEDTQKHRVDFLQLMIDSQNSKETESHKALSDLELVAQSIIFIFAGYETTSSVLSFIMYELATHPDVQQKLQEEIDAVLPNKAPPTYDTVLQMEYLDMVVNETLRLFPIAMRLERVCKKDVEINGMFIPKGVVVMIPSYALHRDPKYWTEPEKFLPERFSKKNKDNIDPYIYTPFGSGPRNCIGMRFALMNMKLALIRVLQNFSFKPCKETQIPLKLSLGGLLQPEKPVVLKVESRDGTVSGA
Sequence of CYP2C19 (P33261 whole entry): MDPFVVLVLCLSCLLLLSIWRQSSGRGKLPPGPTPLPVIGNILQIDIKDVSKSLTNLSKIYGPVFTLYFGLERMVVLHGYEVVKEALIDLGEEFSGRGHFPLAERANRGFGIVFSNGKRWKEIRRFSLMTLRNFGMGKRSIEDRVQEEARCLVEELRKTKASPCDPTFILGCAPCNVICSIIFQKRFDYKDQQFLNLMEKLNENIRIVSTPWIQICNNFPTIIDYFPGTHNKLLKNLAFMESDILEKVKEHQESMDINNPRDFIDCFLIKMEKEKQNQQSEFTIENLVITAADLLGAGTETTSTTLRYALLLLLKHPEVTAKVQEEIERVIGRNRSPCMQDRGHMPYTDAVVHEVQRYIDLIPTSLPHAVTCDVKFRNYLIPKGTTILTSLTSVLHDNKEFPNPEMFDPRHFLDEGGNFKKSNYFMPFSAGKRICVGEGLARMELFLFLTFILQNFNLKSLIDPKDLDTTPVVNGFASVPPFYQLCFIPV

Question: For `C[C@]12CC[C@@H]3c4ccc(OC(=O)N(CCCl)CCCl)cc4CC[C@H]3[C@@H]1CCC2=O` [Estromustine, estromustine], which “percentage of activity remaining in the presence of the compound” value (“percentage of activity remaining” below) ([1]; CYP1A2, compound at 10 μM, control 100%) is on record?
Answer: 85.0%

Question: What about the “percentage of activity remaining” value [1, 7] of the same molecule?
Answer: 68.4%

Question: What about the “percentage of activity remaining” value ([2]; CYP2C9, compound at 10 μM, control 100%) of the same molecule?
Answer: 92.5%

Question: What about the “percentage of activity remaining” value [2, 8] of the same molecule?
Answer: 86.9%

Question: What about the “percentage of activity remaining” value ([3]; CYP2C19, compound at 10 μM) of the same molecule?
Answer: 90.6%

Question: And the “percentage of activity remaining” value ([3]; CYP2C19, compound at 100 μM)?
Answer: 81.0%

Question: And the “percentage of activity remaining” value ([4]; CYP2D6, compound at 10 μM, control 100%)?
Answer: 64.1%

Question: And the “percentage of activity remaining” value [4, 9]?
Answer: 76.9%

Question: What about the “percentage of activity remaining” value ([5]; CYP3A4, compound at 10 μM, control 100%) of the same molecule?
Answer: 43.2%

Question: And the “percentage of activity remaining” value [5, 10]?
Answer: 33.1%

Question: And the “inhibition of 6α-hydroxylation of paclitaxel” value ([6]; CYP2C8, compound at 100 μM, 40 min)?
Answer: 20%

Question: What does the source list for `C[C@]12CC[C@@H]3c4ccc(OC(=O)N(CCCl)CCCl)cc4CC[C@H]3[C@@H]1CC[C@@H]2O` [Estramustine, estramustine]?
Answer: percentage of activity remaining in the presence of the compound [1, 7]: 57.2%; percentage of activity remaining in the presence of the compound ([1]; CYP1A2, control 100%): 72.7%; percentage of activity remaining in the presence of the compound [2, 8]: 58.8%; percentage of activity remaining in the presence of the compound ([2]; CYP2C9, control 100%): 56.4%; percentage of activity remaining in the presence of the compound ([3]; CYP2C19, compound at 100 μM): 40.1%; percentage of activity remaining in the presence of the compound ([3]; CYP2C19, first estramustine column, head prints 100 μM): 37.9%; percentage of activity remaining in the presence of the compound [4, 9]: 32.7%; percentage of activity remaining in the presence of the compound ([4]; CYP2D6, control 100%): 38.0%; percentage of activity remaining in the presence of the compound [5, 10]: 20.2%; percentage of activity remaining in the presence of the compound ([5]; CYP3A4, control 100%): 27.0%; inhibition at 90 min, 100 µM ([5]; human): ~80%; inhibition at 40 min, 100 μM ([6]; human, microsomes, pH 7.4, CYP2C8, compound at 100 μM): 40%
